Assay results published in patent US20240217988A1, “ESTROGEN RECEPTOR ANTAGONIST” (Shenzhen Forward Pharmaceuticals Co., Limited, priority 2021, published 2024).

How the values were obtained:
GST-ERα-LBD = GST-ERα-LBD (Homo sapiens (Human), UniProt P03372); assay: ERα TR-FRET test; assay type: biochemical; details: estradiol final concentration 1.5 nM, biotin-SRC2
Protocol: 1× Tris-HCl (Sigma, PHG0002) protein buffer was prepared and mixed for later use. The compound to be detected was prepared into a stock solution with a concentration of 2 mM and then subjected to serial 3-fold gradient dilution, resulting in a total of 10 concentrations.
Preparation of 1× protein mixed solution: firstly, 2× GST-ERα-LBD (Invitrogen, A15677)/MAb anti-GST-Eu (Cisbio, 61GSTKLA) mixed solution was prepared according to the following table.
2× biotin-SRC2/streptavidin-XL665 (Cisbio, 610SAXLA) mixed solution was prepared.
The above 2× GST-NR-LBD/ MAb anti-GST-Eu solution and 2× biotin-SRC2/streptavidin-XL665 solution were uniformly mixed at a volume ratio of 1:1; and the 1× protein mixed solution was added to each well of a 384-well plate, with 20 μL being added per well, the 384-well plate was put into a centrifuge and centrifuged at room temperature at 1000 rpm for 10 seconds, and it was taken out, then left to stand at room temperature for 3 h, and then read by EnVision multifunctional microplate reader.
The inhibition rate was calculated according to the following formula: […]
The data were imported into Graphpad Prism, and Log(agonist) vs. response-variable slope was used for curve fitting.
Y=Bottom+(Top−Bottom)/(1+10^((LogEC50−X)*HillSlope)) Fitting formula

[1] = system: Human breast cancer cells MCF-7; assay: MCF-7 cell proliferation experiment; assay type: cell-based; details: Homo sapiens, MCF7; MCF-7 cells, 72 hours, Cell Titer-Glo
Protocol: Test Example 2: MCF-7 Cell Proliferation Experiment
Human breast cancer cells MCF-7 (HTB-22, purchased from ATCC) were inoculated into a 96-well plate. The culture medium was an MEM (Hyclone, SH30024.01B) culture medium containing 10% of FBS (Gibco, 10099-141), 1% of pyruvic acid (Sigma, S8636), and 1% of nonessential amino acid (Sigma, M7145), and the inoculation density was 4,000 cells/well. The cells were cultured at 37° C., 5% CO2. The compound was prepared into a 20 mM stock solution, which was subjected to gradient dilution to a final concentration of […] with 100% DMSO (Sigma, D2650) and then diluted 20 folds with a culture medium containing 2% of FBS. After 24 hours of culture, the culture medium was removed, 90 μL of a culture medium containing 2% of FBS and 10 μL of drug were added to each well, while 10 μL of DMSO was added to the control group, and they were gently shaken and mixed. The blank group only contained 100 μL of 2% FBS culture medium. They were placed in an incubator and cultured at 37° C., 5% CO2. After 72 hours, 50 μL of mixed Cell Titer-Glo (Promega, G7571) was added. They were shaken and mixed uniformly, and placed at room temperature for 10 min. The chemiluminescence signal value was determined. The negative control was 0.5% DMSO well.

ERα = ERα (Homo sapiens (Human), UniProt P03372); assay: Degradation effect of compound on ERα (ERα DuoSet IC ELISA in MCF-7 cells); assay type: cell-based; details: 24 h with compound, read-out: IC50 value of ERα degradation by compound
Chain of ERα (P03372 whole entry): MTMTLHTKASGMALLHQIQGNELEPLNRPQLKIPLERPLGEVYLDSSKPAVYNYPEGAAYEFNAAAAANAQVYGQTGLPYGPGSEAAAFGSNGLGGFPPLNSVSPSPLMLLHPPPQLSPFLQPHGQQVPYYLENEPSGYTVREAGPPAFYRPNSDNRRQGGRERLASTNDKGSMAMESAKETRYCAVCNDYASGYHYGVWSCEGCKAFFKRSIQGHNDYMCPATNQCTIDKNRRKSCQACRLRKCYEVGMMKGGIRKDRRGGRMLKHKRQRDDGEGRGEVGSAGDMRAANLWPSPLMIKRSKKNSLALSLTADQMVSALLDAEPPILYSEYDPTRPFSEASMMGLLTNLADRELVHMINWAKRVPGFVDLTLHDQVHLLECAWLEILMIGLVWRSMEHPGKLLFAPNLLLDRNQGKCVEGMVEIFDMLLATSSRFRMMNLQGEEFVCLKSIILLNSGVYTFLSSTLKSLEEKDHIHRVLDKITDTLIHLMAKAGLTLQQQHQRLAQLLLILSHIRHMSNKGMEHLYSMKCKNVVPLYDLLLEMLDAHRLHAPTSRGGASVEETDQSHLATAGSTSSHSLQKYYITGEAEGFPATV
Protocol: In this test example, ERα DuoSet IC ELISA Kit (R&D, DYC5715) was used to detect the degradation effect of the compound on ERα. On the first day of the experiment, human breast cancer cells MCF-7 (the source was as above) were inoculated into a 24-well plate. The culture medium was an MEM culture medium containing 10% of activated-carbon-treated FBS (Tocyto, UT61204), 1% of pyruvic acid and 1% of nonessential amino acid. The inoculation density was 150,000 cells/well. The cells were cultured at 37° C., 5% CO2 for 24 h.
On the second day of the experiment, the compound to be tested was diluted in gradient and added to a 24-well plate containing cells. The cells were cultured for 24 h at 37° C., 5% CO2. ERα capture antibody was diluted to 1 μg/ml with PBS (Corning, 21-040-CVR) and added to a 96-well plate at 100 μL/well, and the plate was […] coated overnight at room temperature.
On the third day of the experiment, the coated 96-well plate was washed three times with PBS, 300 μL of a blocking solution (R&D, DY995) was added to each well, and the plate was blocked at room temperature for 1 h. The 24-well plate was washed once with PBS, and the residual liquid was sucked off. […] The diluted cell lysate was taken and added to the blocked 96-well plate, with 100 μL per well, and incubated at room temperature for 2 h. The plate was washed three times with a washing solution (R&D, WA126), and a primary antibody was then added. After incubation for 1 h, the 96-well plate was washed four times, a secondary antibody was added, and incubation was carried out at room temperature in the dark for 30 min. The plate was washed four times with the washing solution, and TMB (R&D, DY999) was added. After 15 minutes of development, the reaction was terminated with a stop solution (R&D, DY994), and the light absorption at 450 nm was read.

[2] = Stability in human liver microsomes in vitro; assay type: in vitro ADME; details: human liver microsomes; for half-life: microsome protein 1 mg/mL working solution, NADPH; for CLint scaled: scaled to liver; for microsomal CLint: read-out: CLint(mic)
Protocol: Test Example 4: Test for Stability in Human Liver Microsomes In Vitro Eight 96-well incubation plates were prepared and named [NT], Blank60 and NCF60, respectively. […] No test compound or control compound was added to Blank60 plate, and samples were taken after incubation for 60 min. NCF60 plate was incubated with a potassium phosphate buffer instead of an NADPH regeneration system solution (Sigma, N0505) for 60 min. […] Only the microsome working solution was added to Blank60 plate, and the incubation plates Blank60, T5, T15, T30, T45 and T60 except T0 and NCF60 were then placed in a water bath at 37° C. and pre-incubated for about 10 min. To the samples of T0 plate, 600 μL of a stop solution (acetonitrile:methanol (95:5, v/v) solution containing 100 ng/mL of tolbutamide (Sigma, T0891)) was added first, and the NADPH regeneration system working solution was then added. 98 μL of a potassium phosphate buffer was added to each well of NCF60 plate and incubated for 60 min. After the pre-incubation in the incubation plates Blank60, T5, T15, T30, T45 and T60 was completed, 98 μL of the NADPH regeneration system working solution was added to each sample well to initiate the reaction. After an appropriate incubation time (such as 5, 15, 30, 45 and 60 min), 600 μL of a stop solution was added to each sample well and the control sample well in Blank60, […] the reaction. All the sample plates were shaken uniformly and centrifuged at 3220×g for 20 min. 200 μL of test sample supernatant was separately taken and diluted in 200 μL of an aqueous solution containing 0.3% formic acid for LC-MS/MS analysis, and 100 μL of control sample supernatant was taken and diluted in 300 μL of pure water for LC-MS/MS analysis. Calculation was performed according to the following formula: [formula] [formula] [formula] [formula] [formula] [formula]

Chain of GST-ERα-LBD (P03372 311-547): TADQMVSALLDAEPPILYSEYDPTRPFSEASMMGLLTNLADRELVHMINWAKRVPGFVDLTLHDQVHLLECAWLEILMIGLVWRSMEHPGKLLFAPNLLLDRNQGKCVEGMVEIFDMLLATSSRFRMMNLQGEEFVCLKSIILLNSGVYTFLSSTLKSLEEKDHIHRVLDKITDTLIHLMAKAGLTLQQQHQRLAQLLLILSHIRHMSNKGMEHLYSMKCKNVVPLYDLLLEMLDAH

For COc1cc(NC2CN(CCCF)C2)cc(Cl)c1[C@@H]1c2ccc3[nH]c(=O)oc3c2C[C@@H](C)N1CC(F)(F)F [Example 33, (6S,8R)-6-(4-((1-(3-fluoropropyl)azetidin-3-yl)amino)-2-methoxy-6-chloro-phenyl)-8-methyl-7-(2,2,2-trifluoroethyl)-6,7,8,9-6,7,8,9-tetrahydrooxazolo[5,4-f]isoquinolin-2(3H)-one], the IC50 (GST-ERα-LBD) was 11.8 nM, the IC50 [1] was 0.39 nM and the DC50 (ERα) was 0.35 nM. It also gave a half-life [2] of 1.85 h, a CLint scaled [2] of 7.9 mL/min/kg and a microsomal CLint [2] of 8.3 µL/min/mg.

C[C@@H]1Cc2c(ccc3[nH]c(=O)oc23)[C@@H](c2c(F)cc(NC3CN(CCCF)C3)cc2F)N1CC(F)(F)CO [Example 9, (6S,8R)-7-(2,2-difluoro-3-hydroxypropyl)-6-(2,6-difluoro-4-((1-(3-fluoropropyl)azetidin-3-yl)amino)phenyl)-8-methyl-6,7,8,9-tetrahydrooxazolo[5,4-f]isoquinolin-2(3H)-one] showed an IC50 (GST-ERα-LBD) of 21.6 nM, an IC50 [1] of 0.19 nM and a DC50 (ERα) of 0.39 nM.

Molecule COc1cc(NC2CN(CCCF)C2)ccc1[C@@H]1c2ccc3[nH]c(=O)oc3c2C[C@@H](C)N1CC1(F)CC1 [Example 31] has an IC50 (GST-ERα-LBD) of 45.6 nM, an IC50 [1] of 0.85 nM and a DC50 (ERα) of 0.75 nM. The half-life [2] was 1.39 h, the CLint scaled [2] was 18.4 mL/min/kg and the microsomal CLint [2] was 17.5 µL/min/mg.

For C[C@@H]1Cc2c(ccc3[nH]c(=O)oc23)[C@@H](c2c(F)cc(NC3CN(CCCF)C3)cc2F)N1CC(F)(F)F [Example 10, (6S,8R)-6-(2,6-difluoro-4-((1-(3-fluoropropyl)azetidin-3-yl)amino)phenyl)-8-methyl-7-(2,2,2-trifluoroethyl)-6,7,8,9-tetrahydrooxazolo[5,4-f]isoquinolin-2(3H)-one], the IC50 (GST-ERα-LBD) was 7.8 nM, the IC50 [1] was 0.2 nM and the DC50 (ERα) was 0.41 nM. The half-life [2] was 1.94 h, the CLint scaled [2] was 8.1 mL/min/kg and the microsomal CLint [2] was 9 µL/min/mg.

With C[C@@H]1Cc2c(ccc3[nH]c(=O)oc23)[C@@H](c2c(F)cc(N3CC4(CN(CCF)C4)C3)cc2F)N1CC(F)(F)CO [Example 14, (6S,8R)-7-(2,2-difluoro-3-hydroxypropyl)-6-(2,6-difluoro-4-(6-(2-fluoroethyl)-2,6-diazspiro[3.3]hept-2-yl)phenyl)-8-methyl-6,7,8,9-tetrahydrooxazolo[5,4-f]isoquinolin-2(3H)-one] the IC50 (GST-ERα-LBD) was 40.3 nM, the IC50 [1] was 0.44 nM and the half-life [2] was 1.82 h. For the same molecule, the CLint scaled [2] was 8.7 mL/min/kg and the microsomal CLint [2] was 9.5 µL/min/mg.

In the case of CC(C)CN1[C@H](c2c(F)cc(OCCN3CC(CF)C3)cc2F)c2ccc3[nH]c(=O)oc3c2C[C@H]1C [Example 1], the IC50 (GST-ERα-LBD) is reported as 9 nM, the IC50 [1] is reported as 0.39 nM and the DC50 (ERα) is reported as 0.62 nM. It also gave a half-life [2] of 1.53 h, a CLint scaled [2] of 13.6 mL/min/kg and a microsomal CLint [2] of 15.1 µL/min/mg.

For C[C@@H]1Cc2c(ccc3[nH]c(=O)oc23)[C@@H](c2ccc(NC3CN(CCCF)C3)cn2)N1CC(F)(F)F [Example 26, (6S,8R)-6-(5-((1-(3-fluoropropane)azetidin-3-yl)amino)pyridin-2-yl)-8-methyl-7-(2,2,2-trifluoroethyl)-6,7,8,9-tetrahydroxazolo[5,4-f]isoquinolin-2(3H)-one], the IC50 (GST-ERα-LBD) was 58.4 nM and the IC50 [1] was 0.55 nM.

For COc1cc(O[C@H]2CCN(CCCF)C2)ccc1[C@@H]1c2ccc3[nH]c(=O)oc3c2C[C@@H](C)N1CC(F)(F)F [Example 30, (6S,8R)-6-(4-(((S)-1-(3-fluoropropyl)pyrrolidin-3-yl)oxy)-2-methoxyphenyl)-8-methyl-7-(2,2,2-trifluoroethyl)-6,7,8,9-tetrahydroxazolo[5,4-f]isoquinolin-2(3H)-one], the IC50 (GST-ERα-LBD) was 8.85 nM, the IC50 [1] was 0.21 nM and the DC50 (ERα) was 0.35 nM. For the same molecule, the half-life [2] was 1.58 h, the CLint scaled [2] was 14.4 mL/min/kg and the microsomal CLint [2] was 15.8 µL/min/mg.

COc1cc(NC2CN(CCCF)C2)ccc1[C@@H]1c2ccc3[nH]c(=O)oc3c2C[C@@H](C)N1CC(C)(F)F [Example 32] gave an IC50 (GST-ERα-LBD) of 14.7 nM, an IC50 [1] of 0.39 nM and a DC50 (ERα) of 0.42 nM. For the same molecule, the half-life [2] was 1.71 h, the CLint scaled [2] was 9 mL/min/kg and the microsomal CLint [2] was 9.8 µL/min/mg.

With COc1cc(NC2CN(CCCF)C2)ccc1[C@@H]1c2ccc3[nH]c(=O)oc3c2C[C@@H](C)N1CC(F)(F)F [Example 25, (6S,8R)-6-(4-((1-(3-fluoropropyl)azetidin-3-yl)amino)-2-methoxyphenyl)-8-methyl-7-(2,2,2-trifluoroethyl)-6,7,8,9-6,7,8,9-tetrahydrooxazolo[5,4-f]isoquinolin-2(3H)-one] the IC50 (GST-ERα-LBD) was 11.4 nM, the IC50 [1] was 0.24 nM and the DC50 (ERα) was 0.34 nM. It also gave a half-life [2] of 1.76 h, a CLint scaled [2] of 8.4 mL/min/kg and a microsomal CLint [2] of 9.6 µL/min/mg.

C[C@@H]1Cc2c(ccc3[nH]c(=O)oc23)[C@@H](c2c(F)cc(OC3CN(CCCF)C3)cc2F)N1CC(F)(F)F [Example 12, (6S,8R)-6-(2,6-difluoro-4-((1-(3-fluoropropyl)azetidin-3-yl)oxy)phenyl)-8-methyl-7-(2,2,2-trifluoroethyl)-6,7,8,9-tetrahydrooxazolo[5,4-f]isoquinolin-2(3H)-one] gave an IC50 (GST-ERα-LBD) of 15.6 nM, an IC50 [1] of 0.49 nM and a DC50 (ERα) of 0.57 nM. For the same molecule, the half-life [2] was 1.73 h, the CLint scaled [2] was 8.9 mL/min/kg and the microsomal CLint [2] was 9.8 µL/min/mg.
